Data on five compounds can be found in BindingDB's records for doi:10.1016/S0960-894X(01)80104-9 (1994).

By IC50 is commonly meant the point on the concentration scale where inhibition reaches its midpoint. A lower IC50 goes with greater potency in that assay.

One experiment addresses T1, Thromboxane A2 receptor (Homo sapiens, UniProt P21731).
T1 sequence (P21731 whole entry): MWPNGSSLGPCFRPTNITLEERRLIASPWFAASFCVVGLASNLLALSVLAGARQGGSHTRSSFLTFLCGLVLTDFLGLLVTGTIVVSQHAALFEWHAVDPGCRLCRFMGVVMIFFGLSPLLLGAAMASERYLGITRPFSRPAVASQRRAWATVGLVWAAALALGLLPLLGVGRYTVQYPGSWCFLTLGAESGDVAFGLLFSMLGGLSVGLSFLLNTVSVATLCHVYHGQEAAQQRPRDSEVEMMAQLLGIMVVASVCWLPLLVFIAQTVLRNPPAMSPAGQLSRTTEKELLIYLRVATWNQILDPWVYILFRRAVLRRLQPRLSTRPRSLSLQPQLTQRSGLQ
Kind of experiment: In vitro thromboxane receptor antagonist against U-46619 induced aggregation of washed human platelets.
`O=C(O)CC/C=C\CC[C@H]1[C@@H](OCc2ccc(-c3ccccc3)cc2)CO[C@@H]1c1cccnc1` [(Z)-7-[(2S,3R,4R)-4-(Biphenyl-4-ylmethoxy)-2-pyridin-3-yl-tetrahydro-furan-3-yl]-hept-4-enoic acid] yielded an IC50 of 28 nM.

Biological target in the next experiment: not listed separately
Kind of experiment: In vitro thromboxane receptor antagonist against U-46619 induced aggregation of washed human platelets.
As for `O=C(O)CC/C=C\CC[C@H]1[C@H](OCc2ccc(-c3ccccc3)cc2)CO[C@H]1c1cccnc1` [(Z)-7-[(2R,3R,4S)-4-(Biphenyl-4-ylmethoxy)-2-pyridin-3-yl-tetrahydro-furan-3-yl]-hept-4-enoic acid], half-maximal inhibition (IC50) was put at 820 nM. Turning to `O=C(O)CC/C=C\CC[C@H]1[C@@H](OCc2ccc(-c3ccccc3)cc2)CO[C@H]1c1cccnc1` [(Z)-7-[(2R,3R,4R)-4-(Biphenyl-4-ylmethoxy)-2-pyridin-3-yl-tetrahydro-furan-3-yl]-hept-4-enoic acid], the half-maximal inhibitory concentration (IC50) worked out at 795 nM. `O=C(O)CC/C=C\CC[C@H]1[C@@H](OCc2ccc(-c3ccccc3)cc2)CO[C@@H]1c1cccnc1` [(Z)-7-[(2S,3R,4R)-4-(Biphenyl-4-ylmethoxy)-2-pyridin-3-yl-tetrahydro-furan-3-yl]-hept-4-enoic acid] came in with an IC50 of 27 nM. For the compound `O=C(O)CCCCO/N=C(/c1cccnc1)c1cccc(C(F)(F)F)c1` [5-[Pyridin-3-yl-(3-trifluoromethyl-phenyl)-methyleneaminooxy]-pentanoic acid], half-maximal inhibition (IC50) required 1280 nM.

Regarding `O=C(O)CC/C=C\CC[C@@H]1[C@@H](c2cccnc2)OC[C@H]1OCc1ccc(-c2ccccc2)cc1` [(Z)-7-[(2S,3R,4S)-4-(Biphenyl-4-ylmethoxy)-2-pyridin-3-yl-tetrahydro-furan-3-yl]-hept-4-enoic acid], half-maximal inhibition (IC50) required 88 nM. Compared with the last compound, the IC50 is about 15-fold lower.
